Test [1] concerns the target T1, full length NMT1 enzyme (Homo sapiens, UniProt P30419).
T1 sequence (P30419 1-496): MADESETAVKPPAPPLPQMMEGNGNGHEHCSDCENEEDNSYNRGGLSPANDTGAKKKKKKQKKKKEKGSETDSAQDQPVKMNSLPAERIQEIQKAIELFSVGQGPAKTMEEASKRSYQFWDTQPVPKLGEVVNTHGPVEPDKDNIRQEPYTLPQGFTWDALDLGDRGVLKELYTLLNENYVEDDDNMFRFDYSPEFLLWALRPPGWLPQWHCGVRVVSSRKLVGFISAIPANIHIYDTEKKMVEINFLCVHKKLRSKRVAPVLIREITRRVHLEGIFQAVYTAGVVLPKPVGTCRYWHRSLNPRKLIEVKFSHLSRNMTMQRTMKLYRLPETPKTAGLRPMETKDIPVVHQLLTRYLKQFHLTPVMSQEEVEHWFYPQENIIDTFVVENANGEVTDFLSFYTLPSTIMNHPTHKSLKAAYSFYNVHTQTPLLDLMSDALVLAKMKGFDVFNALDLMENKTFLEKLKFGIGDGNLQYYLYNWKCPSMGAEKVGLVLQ
In words: NMT1 activity assay. Conditions: synthesized octapeptide; average of three experiments.

Test [2] relates to HEK293T‐eGFP cells. The class given is cell-based.

No end group written: not given here.

For ASNKSKPK [SRC(G2A)], the “substrate of NMT1 enzyme” value in test [1] was “not a substrate of NMT1”.

For `CCN(CC)CCCC(C)Nc1ccnc2cc(Cl)ccc12` (centres unmarked) [chloroquine], the “effect on Cas9 and VSV‐G protein levels in recipient cells” value in test [2] was “greatly increased”.
